Test results reported in patent publication US20110162981A1, “METHODS AND COMPOSITIONS FOR PREVENTING, REDUCTING OR TREATING DAMAGE CAUSED BY ISCHEMIA AND SCHEMIA-LIKE CONDITIONS” (priority 2008, published 2011).

System: ischemia-induced brain lesion (middle cerebral artery occlusion)
Test: MCAO/reperfusion stroke model, TTC staining lesion volume
Type: in vivo, Sprague Dawley rats
Conditions: ovariectomized female SD rats, 1 hr MCAO

## C[C@]12CC[C@@H]3c4ccc(O)cc4CC[C@H]3[C@@H]1CC[C@@H]2O [17 β-Estradiol, 17-beta estradiol]
24 hours after onset of reperfusion, TTC staining, mean
  Ischemic Lesion Volume (means, mm^3): 147.4 mm^3
24 hours reperfusion, vs control diet rats
  reduction of ischemia-induced brain lesion compared with control rats: 48%
